Source: PMC4601772, “Investigating Apoptozole as a Chemical Probe for HSP70 Inhibition” (PLoS ONE, 2015)
Values belong to the molecule of their own block, whether it stands above or below them.

Legend:
human HSP72 [1] = molecular target: T1, human HSP72 (Homo sapiens, UniProt P0DMV8); assay: Fluorescence polarisation competitive binding with ATP-FAM probe; conditions: for IC50: displacement of ATP-FAM (10 nM) from human HSP72, geometric mean of 3; for pIC50: displacement of ATP-FAM from human HSP72, geometric mean ± SEM, 3 measurements
T1 construct: 6xHis (N); human rhinovirus 3C protease cleavage site (N); made in house; host or cells: E. coli BL21-AI
Description: (§1) Unless otherwise stated the aqueous assay buffer contained 50 mM TRIS base pH 7.4, 150 mM NaCl, 6 mM MgCl2, 1 mM DTT, 0.1% (wt/wt) CHAPS. The assay was conducted using 384 Plus F ProxiPlates (PerkinElmer) with a final assay volume of 10 μL. Plates were centrifuged at 1000 rpm for 1 minute prior to incubation and read using an 2103 Envision Multilable Plate Reader. Excitation and emission wavelengths used for green probes were 480 nm and 535 nm, respectively. Excitation and emission wavelengths used for red probes were 620 nm and 688 nm, respectively. Fluorescence polarisation was measured in units of millipolarization (mP). All experiments were performed in triplicate, except for experiments with ATP-Cy5 and apoptozole-Cy5, which were performed in duplicate. Data were plotted and analyzed using GraphPad Prism 6, graphical data represents the geometric mean ± standard error of the mean for a single representative experiment.
Compounds (0.2 μL at 50 x screening concentration in DMSO) were dispensed using an ECHO 550 Liquid Handler (labcyte Inc.). To the corresponding wells was added, 5 μL of probe molecule (20 nM in assay buffer) and 5 μL of protein (two times their final concentration in assay buffer) to give a 50% bound fraction.[30] Tracer controls (10 nM probe molecule only) and bound tracer controls (10 nM probe in the presence of appropriate protein concentration) were included on each assay plate. IC50 determination was performed using non-linear least squares curve fitting (GraphPad Prism 6, log(inhibitor) vs. response—variable slope (four parameters)).

[2] = Dynamic light scattering (aggregation under aqueous conditions); format: physicochemical
Description: Apoptozole and VER-155008 (10 mM in DMSO) were diluted in 1 x PBS buffer with a final DMSO concentration of 2%, ± 0.01% v/v Triton X-100. Measurements were performed using a Protein Solutions DynaPro (Wyatt Technology) at room temperature. Data were acquired and processed by the software Dynamics, version 6.10 and calculation of particle radius performed by the cumulant analysis tool. The detector angle was 90°, the laser power was set to 30% and the integration time was 150 s. Each radius value presents three independent measurements, values are quotes as arithmetic mean ± standard error of the mean.

A549 = tested on: A549; set-up: method as in PMID 18729127; conditions: cited from earlier work
SK-OV-3 = tested on: SK-OV-3; set-up: method as in PMID 18729127; conditions: cited from earlier work
HCT-15 = tested on: HCT-15; set-up: method as in PMID 18729127; conditions: cited from earlier work
bovine HSC70 = molecular target: bovine HSC70; set-up: method as in PMID 18729127; conditions: SPR; cited from earlier work
rat HSP72 [3] = molecular target: T2, rat HSP72 (Rattus norvegicus, UniProt P0DMW0); set-up: method as in PMID 18729127; conditions: SPR; cited from earlier work
T2 construct: purchased Enzo Life Sciences

human HSP72 [4] = molecular target: T1, human HSP72; assay: SPR Procedure A, biotinylated apoptozole 4 on neutravidin chip, human HSP72; format: binding; conditions: human HSP72 31–500 nM, control subtracted
Description: (§2) SPR analysis was performed on a Biacore T200 (GE Healthcare) at 25°C at a flow rate of 30 μL/min. The running buffer contained 1 x PBS and was prepared from 10 x concentrated PBS (GE Healthcare) on the day of use. Series S Sensor Chip CM5 was purchased from GE Healthcare, stored at […] and brought to room temperature prior to use.
(§3) The sensor chip was activated by injection of a 1:1 mixture of 500 mM NHS and 200 mM EDC for 420 seconds. Neutravidin (50 μg/mL in 10 mM sodium acetate buffer, pH 5.5) was injected across the chip surface for 60 seconds, followed by injection of 1 mM ethanolamine (pH 8.5) for 420 seconds. Biotinylated-apoptozole 4 (100 μM in 1:1 DMSO/PBS) was injected over the chip surface for 420 seconds. Human and rat HSP72 (500 nM in PBS) were injected at concentrations of 31–500 nM, injection time: 60 seconds, dissociation time: 60 seconds. The control lane was subjected to the conditions described above but derivatization with biotinylated apoptozole 4 was omitted.

rat HSP72 [5] = molecular target: T2, rat HSP72; assay: SPR Procedure A, biotinylated apoptozole 4 on neutravidin chip, rat HSP72; format: binding; conditions: rat HSP72 31–500 nM, control subtracted
Description: as §2, §3

human HSP72 [6] = molecular target: T1, human HSP72; assay: SPR Procedure B, apoptozole derivative 6 bound directly to CM5 chip; format: binding; conditions: three immobilisation levels, HSP72 up to 32 μM
Description: as §2
The sensor chip was activated by injection of a 1:1 mixture of 500 mM NHS and 200 mM EDC for 420 seconds. Apoptozole derivative 6 (100 μM in 1:1 DMSO/PBS) was injected over the chip surface, to give immobilization levels of approximately 4000, 8000 and 12000 RU. Ethanolamine (1 mM, pH 8.5) was then injected over the chip surface for 420 seconds. Human HSP72 (32 μM in PBS) was injected at concentrations of 62 nM–32 μM, injection time: 60 seconds, dissociation time: 60 seconds. The control lane was subjected to the conditions described above but derivatization with apoptozole derivative 6 was omitted.

human HSP72 [7] = molecular target: T1, human HSP72; assay: Fluorescence polarisation KD determination of probes, HSP72; format: binding; conditions: for pKD: human HSP72, geometric mean ± SEM, 3 measurements; for Kd: human HSP72 titrated against fixed probe concentration, geometric mean of 3
Description: as §1
(§4) To each well, 5 μL of probe molecule (20 nM in assay buffer) and increasing concentrations of HSP70 protein (5 μL, two-fold dilution series) were added. Fluorescence polarisation values for tracer control wells (10 nM probe in assay buffer only) were subtracted from each data point prior to data analysis. KD determination was performed using non-linear regression analysis (GraphPad Prism 6, one site–specific binding model).

human HSC70 = molecular target: T3, human HSC70 (Homo sapiens, UniProt P11142); assay: Fluorescence polarisation KD determination of probes, HSC70; format: binding; conditions: single determination
T3 construct: purchased Abcam
Description: as §1, §4

HSP70 = tested on: HSP70; set-up: method as in PMID 24265689; conditions: cited from earlier work
[8] = 10 μM, without Triton X-100, PBS 2% DMSO

T1 sequence (P0DMV8 whole entry): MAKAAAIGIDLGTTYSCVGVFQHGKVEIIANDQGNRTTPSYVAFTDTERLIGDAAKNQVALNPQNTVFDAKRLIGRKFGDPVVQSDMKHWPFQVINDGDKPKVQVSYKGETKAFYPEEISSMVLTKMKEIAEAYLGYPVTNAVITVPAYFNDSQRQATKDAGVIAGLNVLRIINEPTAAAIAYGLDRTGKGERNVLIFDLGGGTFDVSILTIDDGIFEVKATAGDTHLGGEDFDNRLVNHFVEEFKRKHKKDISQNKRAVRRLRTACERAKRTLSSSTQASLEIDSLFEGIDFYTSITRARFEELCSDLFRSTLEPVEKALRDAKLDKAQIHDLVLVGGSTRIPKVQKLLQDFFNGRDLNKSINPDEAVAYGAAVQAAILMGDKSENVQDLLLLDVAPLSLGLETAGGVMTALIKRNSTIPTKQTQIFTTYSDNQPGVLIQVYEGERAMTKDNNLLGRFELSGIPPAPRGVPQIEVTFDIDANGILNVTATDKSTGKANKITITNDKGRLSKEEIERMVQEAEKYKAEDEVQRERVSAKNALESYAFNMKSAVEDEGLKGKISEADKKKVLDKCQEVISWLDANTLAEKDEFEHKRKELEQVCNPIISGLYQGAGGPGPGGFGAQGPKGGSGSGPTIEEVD
T2 sequence (P0DMW0 2-641 limits assumed): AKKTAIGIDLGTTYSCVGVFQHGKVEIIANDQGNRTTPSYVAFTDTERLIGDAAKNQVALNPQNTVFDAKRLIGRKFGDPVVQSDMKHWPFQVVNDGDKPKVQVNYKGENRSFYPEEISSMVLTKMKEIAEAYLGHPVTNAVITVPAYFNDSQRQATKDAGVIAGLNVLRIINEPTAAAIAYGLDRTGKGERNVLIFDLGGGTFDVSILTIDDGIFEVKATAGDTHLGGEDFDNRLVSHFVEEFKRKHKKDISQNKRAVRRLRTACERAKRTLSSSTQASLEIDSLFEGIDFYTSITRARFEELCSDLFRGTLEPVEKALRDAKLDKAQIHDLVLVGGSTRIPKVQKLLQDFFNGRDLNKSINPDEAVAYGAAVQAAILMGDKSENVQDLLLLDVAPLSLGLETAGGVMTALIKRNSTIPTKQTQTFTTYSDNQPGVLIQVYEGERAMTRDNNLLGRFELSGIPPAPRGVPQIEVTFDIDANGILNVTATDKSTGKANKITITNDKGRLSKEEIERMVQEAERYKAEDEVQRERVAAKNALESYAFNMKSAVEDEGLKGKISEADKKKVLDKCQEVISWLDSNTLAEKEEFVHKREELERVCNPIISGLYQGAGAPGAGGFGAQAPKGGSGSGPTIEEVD
T3 sequence (P11142 whole entry): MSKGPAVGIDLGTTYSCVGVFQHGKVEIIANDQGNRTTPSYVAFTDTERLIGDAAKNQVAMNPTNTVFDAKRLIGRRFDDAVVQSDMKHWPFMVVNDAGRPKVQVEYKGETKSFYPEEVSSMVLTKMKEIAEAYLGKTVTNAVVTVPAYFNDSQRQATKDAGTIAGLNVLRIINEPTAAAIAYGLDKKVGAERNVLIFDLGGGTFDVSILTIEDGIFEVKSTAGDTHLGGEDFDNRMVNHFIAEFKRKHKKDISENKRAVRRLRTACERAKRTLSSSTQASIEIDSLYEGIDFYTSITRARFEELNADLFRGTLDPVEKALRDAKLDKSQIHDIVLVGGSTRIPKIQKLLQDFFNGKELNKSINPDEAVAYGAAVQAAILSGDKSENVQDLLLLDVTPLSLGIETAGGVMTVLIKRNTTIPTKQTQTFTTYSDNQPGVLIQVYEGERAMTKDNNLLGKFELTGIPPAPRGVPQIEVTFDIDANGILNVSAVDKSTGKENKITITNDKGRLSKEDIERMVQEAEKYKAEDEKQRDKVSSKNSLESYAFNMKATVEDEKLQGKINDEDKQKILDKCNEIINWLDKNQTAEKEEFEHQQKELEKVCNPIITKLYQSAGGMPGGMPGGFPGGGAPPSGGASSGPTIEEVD

- IC50 (human HSP72 [1]): 670 nM
- pIC50 (human HSP72 [1]): 6.17 ± 0.11
Molecule: Nc1ncnc2c1ncn2[C@@H]1O[C@H](COP(=O)(O)OP(=O)(O)O)[C@@H](O)[C@H]1O [ADP]

Molecule: Nc1ncnc2c1ncn2[C@@H]1O[C@H](COP(=O)(O)OP(=O)(O)OP(=O)(O)O)[C@@H](O)[C@H]1O [ATP]
- IC50 (human HSP72 [1]): 1200 nM
- pIC50 (human HSP72 [1]): 5.94 ± 0.05

- Aggregate formation ([2]; 10 μM): no evidence of aggregate formation
- Intensity ([2]; 10 μM, with 0.01% Triton X-100): 318.2 ± 61.3 kcps
- Radius ([2]; 10 μM, with 0.01% Triton X-100): 101.1 ± 9.0 nm
- Intensity ([2]; 10 μM, without Triton X-100): 63.2 ± 5.8 kcps
- Radius [2, 8]: 88.5 ± 8.3 nm
- IC50 (human HSP72 [1]): 490 nM
- pIC50 (human HSP72 [1]): 6.31 ± 0.06
Molecule: N#Cc1ccc(COC[C@H]2O[C@@H](n3c(NCc4ccc(Cl)c(Cl)c4)nc4c(N)ncnc43)[C@H](O)[C@@H]2O)cc1 [VER-155008]

- Intensity ([2]; 1 μM, without Triton X-100): 132.6 ± 39.7 kcps
- Radius ([2]; 1 μM, without Triton X-100): 89.3 ± 5.8 nm
- Intensity ([2]; 5 μM, without Triton X-100): 1047.5 ± 183.1 kcps
- Radius ([2]; 5 μM, without Triton X-100): 454.4 ± 36.4 nm
- Intensity ([2]; 10 μM, with 0.01% Triton X-100): 2350.0 ± 173.1 kcps
- Radius ([2]; 10 μM, with 0.01% Triton X-100): 86.5 ± 2.1 nm
- Intensity ([2]; 10 μM, without Triton X-100): 1441.1 ± 186.5 kcps
- Radius [2, 8]: 521.5 ± 30.9 nm
- Concentration at which large colloidal aggregates form ([2]; aqueous conditions): ≥ 5 µM
- Particle radius ([2]; concentrations ≥ 5 μM, without detergent): > 450 nm
Molecule: COc1ccc(-c2nc(-c3cc(C(F)(F)F)cc(C(F)(F)F)c3)n(Cc3ccc(C(N)=O)cc3)c2-c2ccc(OC)cc2)cc1 [apoptozole]
- GI50 (A549): 130 nM
- GI50 (SK-OV-3): 220 nM
- GI50 (HCT-15): 250 nM
- ATP-competitive binding (displacement of ATP-FAM probe) (human HSP72 [1]; concentrations up to 80 μM): no displacement of the ATP-FAM probe observed
- Kd (bovine HSC70): 210 nM
- Kd (rat HSP72 [3]): 140 nM

- Binding interaction (SPR) (human HSP72 [4]): no evidence of binding interactions
- Binding interaction (SPR) (rat HSP72 [5]): no evidence of binding interactions
Molecule: COc1ccc(-c2nc(-c3cc(C(F)(F)F)cc(C(F)(F)F)c3)n(Cc3ccc(C(=O)NCCOCCOCCNC(=O)CCC(=O)NCCOCCOCCNC(=O)CCCC[C@@H]4SC[C@@H]5NC(=O)N[C@@H]54)cc3)c2-c2ccc(OC)cc2)cc1 [compound 4, N^1-(2-(2-(2-(4-((2-(3,5-Bis(trifluoromethyl)phenyl)-4,5-bis(4-methoxyphenyl)-1H-imidazol-1-yl)methyl)benzamido)ethoxy)ethoxy)ethyl)-N^4-(2-(2-(2-(5-((3aS,4S,6aR)-2-oxohexahydro-1H-thieno[3,4-d]imidazol-4-yl)pentanamido)ethoxy)ethoxy)ethyl)succinamide]

- Binding interaction (SPR) (human HSP72 [6]): no binding interactions were observed
Molecule: COc1ccc(-c2nc(-c3cc(C(F)(F)F)cc(C(F)(F)F)c3)n(Cc3ccc(C(=O)NCCOCCOCCNC(=O)CCC(=O)NCCOCCOCCN)cc3)c2-c2ccc(OC)cc2)cc1 [compound 6, N^1-(2-(2-(2-Aminoethoxy)ethoxy)ethyl)-N^4-(2-(2-(2-(4-((2-(3,5-bis(trifluoromethyl)phenyl)-4,5-bis(4-methoxyphenyl)-1H-imidazol-1-yl)methyl)benzamido)ethoxy)ethoxy)ethyl)succinamide]

- pKD (human HSP72 [7]): 6.50 ± 0.04
- Kd (human HSP72 [7]): 320 nM
- Kd (human HSC70): 970 nM
Molecule: N^6-(6-Amino)hexyl-ATP-6-FAM [ATP-FAM]

- pKD (human HSP72 [7]): 5.95 ± 0.02
- Kd (human HSP72 [7]): 1100 nM
Molecule: N^6-(6-Amino)hexyl-ATP-Cy5

Molecule: pifithrin-μ
- Mode of binding to HSP70 (HSP70): unspecific, detergent-like way
